This is an account of results in patent US4183931A, “2-Ketoalkyl-4(3H)-quinazolinones” (Research Corporation, priority 1977, dated 1980).

A word on the LD50: it is the dose at which mortality reaches 50%.

Where two headings read alike, the source gives them in different places. A value given as a limit tells only on which side of the number the result lay.

Series [1] can be described thus: NINCDS Subcutaneous Pentylenetetrazol (Metrazol) Seizure Threshold Test (scMet). It is filed as in vivo, mice. As to conditions: Mus musculus, sc, read-out: scMet: dosage level that elicited protection. Here is the method: 1. Neurological Activity Tests. […] Compounds were evaluated for anticonvulsant activity in two seizure models, the maximal electroshock seizure (MES) test and the subcutaneous pentylenetetrazol (Metrazol) seizure threshold (scMet) test.
Subcutaneous Pentylenetetrazol (Metrazol) Seizure Threshold Test (scMet) produces threshold (clonic) seizures. Pentylenetetrazol is administered subcutaneously as a threshold 0.5% solution (in 0.9% sodium chloride) in a loose fold of skin on the back of the neck in a dose of 85 mg/kg. […] Metrazol is given 10 minutes before the beginning of the test to allow for the delay in onset of Metrazol action. The animal is observed for 30 minutes. Failure to observe even a threshold seizure (a single episode of clonic spasms at least 5 seconds in duration) is defined as protection and indicates anticonvulsant activity in the test compound. These two methods of seizure provocation reliably elicit well-characterizied seizure phenomena.
The ability of a compound to prevent maximal electroshock seizures is believed to correlate with its ability to prevent the spread of seizure discharge through neural tissue. Activity against maximal electroshock seizures is thought to indicate potential efficacy in the treatment of major motor (grand mal) seizures. […] Selective action in the test is believed to indicate potential efficacy against absence (petit mal) seizures.
As described earlier, the MES, scMet and Rotorod tests were performed one-half hour and four hours after administration of each compound.
In the Secondary Evaluation, median effective doses (ED50) are determined in the MES, scMet and Rotorod assays using the procedures defined in Pharmacology, 95, 99-113 (1949).
Separate groups of animals are used for each time period. The times of peak toxic and anticonvulsant effect are taken from the resulting graph of percent of animals responding vs. time, and the determinations of median effective doses are performed at those times.

Series [2] in a line: Neuropharmacological Profile (NPP): general CNS observational screen (depression, righting reflex, ataxia). The note with it: i.p., mice, score 0-8; for Depression: at 300 mg/kg. The procedure: Representative compounds according to the present invention were tested for central nervous system activity by Pharmakon Laboratories of Scranton, Pennsylvania. The battery of general observational procedures used is referred to herein as a Neuropharmacological Profile (NPP). Additionally, representative compounds were tested in the Anticonvulsant Screening Project of the National Institutes of Neurological and Communicative Disorders and Stroke (NINCDS) at the University of Utah under the direction of Dr. Ewart A. Swinyard.
(§1) The procedures for the determination of a neuropharmacological profile involved white male mice of the Carworth Farm Strain CF-1 weighing 18 to 22 grams. […] Intraperitoneal injections were administered in logarithmic progression and sequentially. The dose levels employed routinely were 10, 30, 100 and 300 mg/kg, using four male mice at each dose level. Since this test was conducted in a sequential manner, the first does administered was at 300 mg/kg. […] Approximately thirty-eight signs and symptoms of pharmacological activity can be identified.
(§2) The animals were observed continously for one hour and, if no signs of pharmacological or toxicological activity were present at the end of the first hour, they were intermittently checked for activity every fifteen minutes thereafter for two consecutive hours. […] The observation period began immediately following the injection and the animals were then continuously observed for three hours and intermittently checked thereafter for forty-eight hours. The animals were observed and signs and symptoms of pharmacological activity were recorded continuously until no further symptoms developed and until the symptoms that appeared were no longer present. […] In such instances, the animals were observed beyond this period until they returned to normal. Routinely, the number of animals alive at the end of the forty-eight hour observation period was recorded and the LD50 estimated.
The animals are free to move about for evaluation of spatial orientation, alertness and spontaneous motor activity.
(§3) Since this is a general CNS screening procedure, only peak effects were recorded. Certain measures of behavior and neurological deficit were scored in terms of intensity of effect, while most others were determined on an all or none basis. Thus, in scoring measures which were normally present, e.g., spontaneous activity and skin color, an increase in score from 4 to 8 was used to denote stimulation or enhancement of skin color, whereas a decrease in score from 4 to 0 indicated depression or cyanosis. For scoring measures normally absent, e.g., depression, righting reflex and ataxia, activity was reflected as an increase in score from 0 to 8. The 0 to 8 scale was rounded off so that the actual ratings are only 0, 2, 4, 6 and 8. The compounds were also evaluated for anticonvulsant activity by using the maximal electroshock seizure (MES) test. In the MES study, four mice were dosed intraperitoneally at 100 mg/kg and challenged thirty minutes later with 50 mA, 0.2 second duration of electroshock. A protection ratio (number of mice protected from tonic extension .div. number of mice tested) was then established.
At the termination of the test, the results were recorded and tabulated.
(§4) Scores for behavioral symptoms, including depression, righting reflex and ataxia, are the actual numbers reported. Protection against MES is reported as a percentage. Since four animals were involved in this test, the findings are 0% for none protected, 25% for one out of four, etc. […] In order to maintain reasonable uniformity in the reporting of results, each entry corresponds to a dosage level of 100 mg/kg. Any variations from that dosage are indicated.

The nature of series [3]: NPP maximal electroshock seizure (MES) protection. It is filed as in vivo, white male mice of the Carworth Farm Strain CF-1. As to conditions: Mus musculus, ip; for responders at 100 mg/kg: 0.5 h, at 100 mg/kg i.p., four mice, 30 min after dosing. The procedure:
as §1, §3, §4
On the technique in general: In the maximal electroshock model the usual endpoint is tonic extension of the hind limbs.

A short description of series [4]: NPP lethality (estimated LD50). As to conditions: mouse, in vivo, ip. Here is the method:
as §1, §2, §4

Where [5] appears, read: after 4 hr (value in parentheses).
Where [6] appears, read: at 30 mg/kg (value in parentheses).

Consider `Cc1ccccc1-n1c(CCc2ccccc2)nc2ccccc2c1=O` [CH2 C6 H5, reference compound], for which the minimal effective dose in series [1] (after 0.5 hr) and in series [1] (setting [5]) was 300 mg/kg throughout.

Regarding `Cc1ccccc1-n1c(CC(=O)C(F)(F)F)nc2ccccc2c1=O` [IIIa, 2-(3,3,3-Trifluoroacetonyl)-3-o-tolyl-4(3H)-quinazoline], in series [2] (setting [6]), the “CNS Depression” value is 4. The Ataxia in series [2] (at 100 mg/kg) is 2. Besides, in series [3], the responders at 100 mg/kg is 50%. The LD50 at 48 h in series [4] is greater than 562 mg/kg.

Consider `Cc1ccccc1-n1c(CC(=O)c2ccccn2)nc2ccccc2c1=O` [IIIb, 2-[2-Oxo-2-(2-pyridyl)ethyl]-3-o-tolyl-4-(3H)-quinazolinone], for which, in series [2] (at 100 mg/kg), the “CNS Depression” value was determined as 2. The minimal effective dose in series [1] (after 0.5 hr) stood at 300 mg/kg. Also, in series [3], the responders at 100 mg/kg worked out at 0%. The LD50 at 48 h in series [4] is greater than 562 mg/kg.

On to `Cc1ccccc1-n1c(CC(=O)c2cccnc2)nc2ccccc2c1=O` [IIIc, 2-[2-Oxo-2-(3-pyridyl)ethyl]-3-o-tolyl-4(3H)-quinazolinone], for which the “CNS Depression” value in series [2] (setting [6]) came out at 4. Moreover, in series [2] (at 100 mg/kg), the Ataxia came out at 8 and the “CNS Depression” value was found to be 6. The minimal effective dose in series [1] (setting [5]) turned out to be 300 mg/kg. In series [3], this molecule came in with a responders at 100 mg/kg of 100%. Moreover, the LD50 at 48 h in series [4] was 562 mg/kg.

For `Cc1ccccc1-n1c(CC(=O)C=Cc2ccccc2)nc2ccccc2c1=O` [IIIf, 2-(2-Oxo-4-phenylbut-3-enyl)-3-o-tolyl-4(3H)-quinazolinone], the “CNS Depression” value was determined as 2 in series [2] (setting [6]) and 4 in series [2] (at 100 mg/kg). The same molecule displayed a responders at 100 mg/kg in series [3] of 25%. Besides, the LD50 at 48 h in series [4] is greater than 562 mg/kg.

Regarding `Cc1ccccc1-n1c(CC(=O)c2ccccc2)nc2ccccc2c1=O` [IIIg, 2-(2-Oxo-2-phenylethyl)-3-o-tolyl-4(3H)-quinazolinone], the “CNS Depression” value in series [2] (setting [6]) and in series [2] (at 100 mg/kg) was 4 in each case. Further, the responders at 100 mg/kg in series [3] turned out to be 0%. Moreover, the LD50 at 48 h in series [4] was greater than 562 mg/kg.

With `Cc1ccccc1-n1c(CC(=O)c2ccc(Cl)cc2)nc2ccccc2c1=O` [IIIh, 2-[2-Oxo-2-(4-chlorophenyl)ethyl]-3-o-tolyl-4(3H)-quinazolinone], the “CNS Depression” value in series [2] (at 100 mg/kg) is 0. The Depression in series [2] amounted to 4. In series [3], this molecule had a responders at 100 mg/kg of 0%. Moreover, the LD50 at 48 h in series [4] was 316 mg/kg.

For `COc1ccc(C(=O)Cc2nc3ccccc3c(=O)n2-c2ccccc2C)cc1` [IIIi, 2-[2-Oxo-2-(4-methoxyphenyl)ethyl]-3-o-tolyl-4(3H)-quinazolinone], the “CNS Depression” value in series [2] (at 100 mg/kg) came to 2. In series [2], this molecule returned a Depression of 4. In addition, the responders at 100 mg/kg in series [3] came to 0%. Moreover, the LD50 at 48 h in series [4] was greater than 562 mg/kg.

For the molecule `COc1cc(C(=O)Cc2nc3ccccc3c(=O)n2-c2ccccc2C)cc(OC)c1OC` [IIIj, 2-[2-Oxo-2-(3,4,5-trimethoxyphenyl)ethyl]-3-o-tolyl-4(3H)-quinazolinone], the “CNS Depression” value in series [2] (at 100 mg/kg) is on record as 2. In series [2], this molecule gave a Depression of 4. In series [3], this molecule yielded a responders at 100 mg/kg of 0%. In addition, the LD50 at 48 h in series [4] is greater than 562 mg/kg.

`CCOC(=O)C(=O)Cc1nc2ccccc2c(=O)n1-c1ccccc1C` [IIIm, 2-Ethoxallylmethyl-3-o-tolyl-4(3H)-quinazolinone]: the “CNS Depression” value in series [2] (at 100 mg/kg) is 4. The responders at 100 mg/kg in series [3] is 0%. Further, the LD50 at 48 h in series [4] is greater than 562 mg/kg.

For the molecule `O=C(Cc1nc2ccccc2c(=O)n1-c1ccccc1Cl)c1ccccn1` [IVb, 2-[2-Oxo-2-(2-pyridyl)ethyl]-3-o-chlorophenyl-4(3H)-quinazolinone], the “CNS Depression” value in series [2] (at 100 mg/kg) is 0. For the same molecule, the Depression in series [2] was 2. In series [3], this molecule displayed a responders at 100 mg/kg of 0%. In series [4], the LD50 at 48 h was 562 mg/kg.

With `O=C(Cc1nc2ccccc2c(=O)n1-c1ccccc1)C(F)(F)F` [IVe, 2-(3,3,3-Trifluoroacetonyl)-3-phenyl-4(3H)-quinazolinone], the “CNS Depression” value in series [2] (at 100 mg/kg) came to 2. The same molecule showed a responders at 100 mg/kg in series [3] of 0%. Further, the LD50 at 48 h in series [4] is 562 mg/kg.

With `O=C(Cc1nc2ccccc2c(=O)n1-c1ccccc1)c1ccncc1` [IVh, 2-[2-Oxo-2-(4-pyridyl)ethyl]-3-phenyl-4(3H)-quinazolinone], in series [1] (after 0.5 hr), the minimal effective dose was found to be 100 mg/kg.

As to `Cc1ccc(-n2c(CC(=O)C(F)(F)F)nc3ccccc3c2=O)cc1` [IVi, 2-(3,3,3-Trifluoroacetonyl)-3-p-tolyl-4(3H)-quinazolinone], in series [2] (at 100 mg/kg), the Ataxia stood at 2 and the “CNS Depression” value came out at 4. The responders at 100 mg/kg in series [3] stood at 100%. Further, the LD50 at 48 h in series [4] is 562 mg/kg.

Turning to `Cc1ccc(-n2c(CC(=O)c3cccnc3)nc3ccccc3c2=O)cc1` [IVk, 2-[2-Oxo-2-(3-pyridyl)ethyl]-3-p-tolyl-4(3H)-quinazolinone], the “CNS Depression” value in series [2] (at 100 mg/kg) came to 4. In series [3], this molecule had a responders at 100 mg/kg of 0%. Moreover, the LD50 at 48 h in series [4] was 562 mg/kg.

Take `Cc1ccc(-n2c(CC(=O)c3ccncc3)nc3ccccc3c2=O)cc1` [IVl, 2-[2-Oxo-2-(4 pyridyl)ethyl]-3-p-tolyl-4(3H)-quinazolinone]: the minimal effective dose in series [1] (setting [5]) worked out at 300 mg/kg.

In the case of `Cn1c(CC(=O)c2ccccc2)nc2ccccc2c1=O` [IVr, 2-(2-Oxo-2-phenylethyl)-3-methyl-4(3H)-quinazolinone], the minimal effective dose in series [1] (setting [5]) stood at 300 mg/kg.

Consider `Cn1c(CC(=O)c2cccnc2)nc2ccccc2c1=O` [IVs, 2-[2-Oxo-2-(3-pyridyl)ethyl]-3-methyl-4(3H)-quinazolindone], for which the “CNS Depression” value in series [2] (at 100 mg/kg) stood at 4. This molecule also came in with a responders at 100 mg/kg in series [3] of 0%. Besides, the LD50 at 48 h in series [4] is 422 mg/kg.

In the case of `Cc1ccc(-n2c(C)nc3ccccc3c2=O)cc1` [p-tolyl H, 2-methyl-3-p-tolyl-4(3H)-quinazolinone, reference compound], the “CNS Depression” value in series [2] (setting [6]) is listed as 4; in series [2] (at 100 mg/kg) it was 8. In series [2] (at 100 mg/kg), this molecule showed an Ataxia of 8. In addition, the responders at 100 mg/kg in series [3] turned out to be 100%. For the same molecule, in series [4], the LD50 at 48 h was greater than 562 mg/kg.

For `Cc1nc2ccccc2c(=O)n1-c1ccccc1` [phenyl H, 2-methyl-3-phenyl-4(3H)-quinazolinone, reference compound], the “CNS Depression” value in series [2] (setting [6]) turned out to be 4. Further, in series [2] (at 100 mg/kg), the Ataxia is listed as 8, the “CNS Depression” value worked out at 8 and the Righting reflex is on record as 8. This molecule registered a responders at 30 mg/kg in series [3] (conducted at 30 mg/kg i.p.) of 0%. In series [4], the LD50 at 48 h was 562 mg/kg.
